This note sets out measurements from ChEMBL document CHEMBL3991601, “The target landscape of clinical kinase drugs” (Science, 2017).

Some targets named below: Ephrin type-A receptor 2 (Homo sapiens, UniProt P29317); Actin-related protein 2 (Homo sapiens, UniProt P61160); Obg-like ATPase 1 (Homo sapiens, UniProt Q9NTK5); Activated CDC42 kinase 1 (Homo sapiens, UniProt Q07912).
The target in assay [1] is T1, ATP-dependent RNA helicase DDX1 (Homo sapiens, UniProt Q92499).
T1 sequence (Q92499 whole entry): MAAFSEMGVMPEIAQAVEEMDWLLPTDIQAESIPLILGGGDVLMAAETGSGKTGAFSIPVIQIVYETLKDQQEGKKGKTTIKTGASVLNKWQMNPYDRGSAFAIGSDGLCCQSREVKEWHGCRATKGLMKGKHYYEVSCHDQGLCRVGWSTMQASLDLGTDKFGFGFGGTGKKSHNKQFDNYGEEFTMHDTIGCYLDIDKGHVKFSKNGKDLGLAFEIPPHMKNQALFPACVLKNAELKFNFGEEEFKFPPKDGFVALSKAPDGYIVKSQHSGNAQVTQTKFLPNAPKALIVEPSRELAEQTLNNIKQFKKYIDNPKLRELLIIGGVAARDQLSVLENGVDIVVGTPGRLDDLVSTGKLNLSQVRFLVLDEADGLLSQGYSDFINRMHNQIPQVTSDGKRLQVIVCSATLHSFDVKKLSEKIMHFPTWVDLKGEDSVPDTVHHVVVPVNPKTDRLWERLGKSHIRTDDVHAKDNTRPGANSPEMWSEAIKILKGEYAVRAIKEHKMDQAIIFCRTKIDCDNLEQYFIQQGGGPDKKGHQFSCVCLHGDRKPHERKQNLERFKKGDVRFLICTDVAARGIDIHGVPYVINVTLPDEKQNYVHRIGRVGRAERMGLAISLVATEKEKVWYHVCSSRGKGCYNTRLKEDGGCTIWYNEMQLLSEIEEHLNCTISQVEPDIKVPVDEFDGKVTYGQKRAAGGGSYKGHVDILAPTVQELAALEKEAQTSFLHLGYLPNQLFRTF

In assay [2] the target is T2, Phosphatidylinositol 5-phosphate 4-kinase type-2 alpha (Homo sapiens, UniProt P48426).
T2 sequence (P48426 whole entry): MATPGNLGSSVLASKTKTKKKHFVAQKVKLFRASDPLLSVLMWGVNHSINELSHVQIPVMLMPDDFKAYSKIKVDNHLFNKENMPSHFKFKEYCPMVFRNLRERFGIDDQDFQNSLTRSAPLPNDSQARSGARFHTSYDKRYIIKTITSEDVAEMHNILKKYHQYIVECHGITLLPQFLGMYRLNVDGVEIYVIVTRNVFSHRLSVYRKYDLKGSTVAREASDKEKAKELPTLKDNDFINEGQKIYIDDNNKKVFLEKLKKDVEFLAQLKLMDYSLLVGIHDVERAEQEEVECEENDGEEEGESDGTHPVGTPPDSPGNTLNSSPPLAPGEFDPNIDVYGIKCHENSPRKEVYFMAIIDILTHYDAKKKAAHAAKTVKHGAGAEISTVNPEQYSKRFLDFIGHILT

Assay [3] deals with T3, Interleukin-1 receptor-associated kinase 3 (Homo sapiens, UniProt Q9Y616).
T3 sequence (Q9Y616 whole entry): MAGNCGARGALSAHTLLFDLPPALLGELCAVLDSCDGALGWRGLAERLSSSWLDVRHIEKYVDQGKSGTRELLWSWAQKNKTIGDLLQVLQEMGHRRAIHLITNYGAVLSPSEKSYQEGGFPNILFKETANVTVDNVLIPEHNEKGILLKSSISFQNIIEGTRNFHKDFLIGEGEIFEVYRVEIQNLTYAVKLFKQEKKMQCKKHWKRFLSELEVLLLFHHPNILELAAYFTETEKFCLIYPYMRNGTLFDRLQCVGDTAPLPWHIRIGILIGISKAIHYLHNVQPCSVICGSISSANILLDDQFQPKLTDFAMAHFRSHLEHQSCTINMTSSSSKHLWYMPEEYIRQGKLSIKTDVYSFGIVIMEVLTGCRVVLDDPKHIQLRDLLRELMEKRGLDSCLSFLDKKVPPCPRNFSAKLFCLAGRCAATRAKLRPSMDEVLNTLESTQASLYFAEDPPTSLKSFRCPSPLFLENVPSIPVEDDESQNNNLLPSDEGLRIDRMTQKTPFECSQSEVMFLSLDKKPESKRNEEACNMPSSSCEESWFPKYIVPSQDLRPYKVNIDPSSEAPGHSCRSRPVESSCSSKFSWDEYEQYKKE

For assay [4], the target named is Proto-oncogene tyrosine-protein kinase Src (Homo sapiens, UniProt P12931).
Proto-oncogene tyrosine-protein kinase Src, sequence (P12931 2-536 limits assumed): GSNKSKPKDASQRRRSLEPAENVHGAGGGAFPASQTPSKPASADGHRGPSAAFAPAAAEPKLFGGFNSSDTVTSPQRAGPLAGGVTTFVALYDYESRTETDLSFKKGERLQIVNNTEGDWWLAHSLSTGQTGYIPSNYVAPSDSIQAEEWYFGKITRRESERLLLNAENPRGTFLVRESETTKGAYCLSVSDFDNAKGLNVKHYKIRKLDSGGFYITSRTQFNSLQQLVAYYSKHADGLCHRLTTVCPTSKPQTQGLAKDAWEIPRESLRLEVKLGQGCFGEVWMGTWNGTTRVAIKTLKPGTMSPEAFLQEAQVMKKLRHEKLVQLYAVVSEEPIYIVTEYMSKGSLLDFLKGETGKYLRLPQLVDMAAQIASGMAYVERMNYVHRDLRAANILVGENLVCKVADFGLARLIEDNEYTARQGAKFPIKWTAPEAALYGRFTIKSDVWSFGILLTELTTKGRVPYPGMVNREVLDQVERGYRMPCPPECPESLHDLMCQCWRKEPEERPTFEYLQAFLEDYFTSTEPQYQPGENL
Assay [5] has as its target Casein kinase I isoform epsilon (Homo sapiens, UniProt P49674).
Assay [6] has as its target T4, Signal recognition particle receptor subunit alpha (Homo sapiens, UniProt P08240).
T4 sequence (P08240 whole entry): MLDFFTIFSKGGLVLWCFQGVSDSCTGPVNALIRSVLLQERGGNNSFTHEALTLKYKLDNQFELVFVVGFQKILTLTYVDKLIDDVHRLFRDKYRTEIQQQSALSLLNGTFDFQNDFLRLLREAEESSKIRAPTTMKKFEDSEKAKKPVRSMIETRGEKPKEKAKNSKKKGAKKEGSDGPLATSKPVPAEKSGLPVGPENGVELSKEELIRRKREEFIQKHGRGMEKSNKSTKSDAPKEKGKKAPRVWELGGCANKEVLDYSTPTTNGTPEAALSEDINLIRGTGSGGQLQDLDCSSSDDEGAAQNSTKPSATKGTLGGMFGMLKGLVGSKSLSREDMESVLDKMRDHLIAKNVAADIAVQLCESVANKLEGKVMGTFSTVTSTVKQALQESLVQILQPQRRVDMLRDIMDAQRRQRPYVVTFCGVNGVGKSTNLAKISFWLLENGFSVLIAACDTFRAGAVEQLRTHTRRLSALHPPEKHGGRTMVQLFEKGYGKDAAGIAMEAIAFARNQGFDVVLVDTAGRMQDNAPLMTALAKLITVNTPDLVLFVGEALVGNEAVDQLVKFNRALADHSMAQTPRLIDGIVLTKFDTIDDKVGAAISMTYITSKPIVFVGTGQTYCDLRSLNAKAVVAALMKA

The source made the active and inactive calls.
Further: in the data inactive means no Kd found up to 30 µM.

Casein kinase I isoform epsilon, sequence (P49674 whole entry, canonical isoform): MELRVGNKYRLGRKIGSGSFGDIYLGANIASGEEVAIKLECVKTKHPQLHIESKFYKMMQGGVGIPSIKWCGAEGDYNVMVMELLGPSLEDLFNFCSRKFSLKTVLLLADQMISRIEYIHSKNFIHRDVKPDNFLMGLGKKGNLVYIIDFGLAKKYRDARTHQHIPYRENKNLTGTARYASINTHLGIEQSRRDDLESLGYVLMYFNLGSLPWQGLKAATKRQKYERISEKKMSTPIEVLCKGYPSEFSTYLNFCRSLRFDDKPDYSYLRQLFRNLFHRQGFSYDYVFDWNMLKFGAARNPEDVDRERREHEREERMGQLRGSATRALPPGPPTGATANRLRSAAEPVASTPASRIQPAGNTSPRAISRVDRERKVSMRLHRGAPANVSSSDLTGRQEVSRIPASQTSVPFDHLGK
Obg-like ATPase 1, sequence (Q9NTK5 whole entry, looked up): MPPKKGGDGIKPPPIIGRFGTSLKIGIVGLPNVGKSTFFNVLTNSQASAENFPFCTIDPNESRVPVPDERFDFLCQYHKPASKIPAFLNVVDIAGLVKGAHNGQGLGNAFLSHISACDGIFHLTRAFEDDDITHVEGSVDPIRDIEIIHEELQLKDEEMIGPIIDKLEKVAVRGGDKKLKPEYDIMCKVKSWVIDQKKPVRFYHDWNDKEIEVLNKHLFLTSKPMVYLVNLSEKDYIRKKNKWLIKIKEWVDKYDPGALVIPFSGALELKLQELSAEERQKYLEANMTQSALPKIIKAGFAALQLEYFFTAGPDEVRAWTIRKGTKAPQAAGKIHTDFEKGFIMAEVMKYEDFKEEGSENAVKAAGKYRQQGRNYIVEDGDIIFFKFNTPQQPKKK
Activated CDC42 kinase 1, sequence (Q07912 whole entry): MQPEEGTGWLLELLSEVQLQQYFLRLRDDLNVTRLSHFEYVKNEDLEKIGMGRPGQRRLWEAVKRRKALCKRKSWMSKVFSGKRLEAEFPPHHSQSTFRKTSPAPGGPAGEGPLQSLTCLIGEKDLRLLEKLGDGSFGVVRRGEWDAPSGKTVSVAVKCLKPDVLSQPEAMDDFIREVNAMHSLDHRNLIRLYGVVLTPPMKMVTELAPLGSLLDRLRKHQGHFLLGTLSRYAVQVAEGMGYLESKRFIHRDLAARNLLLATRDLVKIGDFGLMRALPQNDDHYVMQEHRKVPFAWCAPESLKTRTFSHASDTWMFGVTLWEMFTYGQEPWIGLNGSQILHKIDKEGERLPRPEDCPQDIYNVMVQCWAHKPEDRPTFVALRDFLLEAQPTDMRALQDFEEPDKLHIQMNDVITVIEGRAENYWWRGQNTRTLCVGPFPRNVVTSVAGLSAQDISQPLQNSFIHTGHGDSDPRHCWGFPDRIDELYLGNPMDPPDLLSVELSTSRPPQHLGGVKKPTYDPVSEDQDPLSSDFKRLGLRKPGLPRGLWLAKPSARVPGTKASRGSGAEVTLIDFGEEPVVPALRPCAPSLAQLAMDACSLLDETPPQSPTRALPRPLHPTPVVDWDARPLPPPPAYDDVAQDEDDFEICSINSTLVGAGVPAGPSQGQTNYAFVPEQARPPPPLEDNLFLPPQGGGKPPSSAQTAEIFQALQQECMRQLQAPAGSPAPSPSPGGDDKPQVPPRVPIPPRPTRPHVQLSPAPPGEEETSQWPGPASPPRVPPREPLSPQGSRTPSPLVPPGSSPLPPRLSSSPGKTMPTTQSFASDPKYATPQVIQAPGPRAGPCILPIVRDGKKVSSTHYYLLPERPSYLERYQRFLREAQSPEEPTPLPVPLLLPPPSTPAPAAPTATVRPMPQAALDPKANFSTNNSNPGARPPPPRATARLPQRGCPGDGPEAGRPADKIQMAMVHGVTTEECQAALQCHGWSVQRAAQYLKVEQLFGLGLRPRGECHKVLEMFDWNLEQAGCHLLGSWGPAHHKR
Ephrin type-A receptor 2, sequence (P29317 whole entry): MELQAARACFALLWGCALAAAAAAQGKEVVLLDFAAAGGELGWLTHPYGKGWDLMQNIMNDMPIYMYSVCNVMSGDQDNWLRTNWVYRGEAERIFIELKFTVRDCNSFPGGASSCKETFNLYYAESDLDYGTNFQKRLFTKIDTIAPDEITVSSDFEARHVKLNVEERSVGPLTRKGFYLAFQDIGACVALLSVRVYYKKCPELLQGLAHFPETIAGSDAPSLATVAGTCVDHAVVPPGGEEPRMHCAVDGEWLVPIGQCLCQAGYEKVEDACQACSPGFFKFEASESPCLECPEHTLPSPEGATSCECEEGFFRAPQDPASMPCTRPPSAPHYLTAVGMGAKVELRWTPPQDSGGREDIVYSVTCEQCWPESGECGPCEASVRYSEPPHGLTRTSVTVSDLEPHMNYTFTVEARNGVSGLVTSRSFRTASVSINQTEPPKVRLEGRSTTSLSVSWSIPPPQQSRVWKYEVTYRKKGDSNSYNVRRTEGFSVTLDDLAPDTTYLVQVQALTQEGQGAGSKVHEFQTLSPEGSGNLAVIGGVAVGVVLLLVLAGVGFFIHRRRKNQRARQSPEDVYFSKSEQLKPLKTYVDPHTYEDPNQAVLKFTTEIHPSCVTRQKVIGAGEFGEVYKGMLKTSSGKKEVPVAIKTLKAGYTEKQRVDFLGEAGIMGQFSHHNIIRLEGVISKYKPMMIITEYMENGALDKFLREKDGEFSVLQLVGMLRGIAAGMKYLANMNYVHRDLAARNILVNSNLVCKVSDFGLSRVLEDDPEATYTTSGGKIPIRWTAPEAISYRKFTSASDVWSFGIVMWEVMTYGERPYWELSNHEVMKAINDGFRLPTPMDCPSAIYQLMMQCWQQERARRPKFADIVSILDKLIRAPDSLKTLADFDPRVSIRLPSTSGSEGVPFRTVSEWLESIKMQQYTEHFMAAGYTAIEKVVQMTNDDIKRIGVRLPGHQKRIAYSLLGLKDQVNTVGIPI

In the case of `CCN(CCCOc1ccc2c(Nc3cc(CC(=O)Nc4cccc(F)c4)n[nH]3)ncnc2c1)CCOP(=O)(O)O` [BARASERTIB], the Kd (in assay [1]; in assay [2]; at Ephrin type-A receptor 2; in assay [3]; in assay [4]; in [5]) was > 30 µM (inactive) throughout. Moreover, the Kd on Actin-related protein 2 and on Obg-like ATPase 1 was > 30 µM (inactive) each time.
`O=C(Nc1ccc(OC(F)(F)F)cc1)c1sccc1NCc1ccnc2ccccc12` [OSI-930]: the Kd (in assay [1]; in [6]; in assay [2]; at Activated CDC42 kinase 1; on Ephrin type-A receptor 2; in assay [3]) was > 30 µM (inactive) each time. The Kd (in [4]; in [5]; on Actin-related protein 2) was > 30 µM (inactive) each time.
With `COc1cc2c(N3CCN(C(=O)Nc4ccc(OC(C)C)cc4)CC3)ncnc2cc1OCCCN1CCCCC1` [TANDUTINIB], the Kd (in assay [1]; in assay [6]; in assay [2]; at Actin-related protein 2; on Obg-like ATPase 1) was > 30 µM (inactive) each time.
On to `O=c1[nH]c([C@@H]2CCCN2)nc2c1oc1ccc(Cl)cc12`, for which the Kd (in assay [6]; in [2]; on Activated CDC42 kinase 1; on Ephrin type-A receptor 2; in [3]; in assay [4]) was > 30 µM (inactive) in each case. Also, the Kd (in assay [5]; on Actin-related protein 2) was > 30 µM (inactive) each time.
As to `CCN1CCN(Cc2ccc(Nc3ncc(F)c(-c4cc(F)c5nc(C)n(C(C)C)c5c4)n3)nc2)CC1` [ABEMACICLIB], the Kd (in assay [1]; in assay [6]; in assay [2]; on Activated CDC42 kinase 1; on Ephrin type-A receptor 2; in [3]) was > 30 µM (inactive) throughout. Besides, the Kd (in [4]; in [5]; on Actin-related protein 2) was > 30 µM (inactive) each time.
Turning to `Cn1cnc2c(F)c(Nc3ccc(Br)cc3Cl)c(C(=O)NOCCO)cc21` [SELUMETINIB], the Kd (in [1]; in assay [6]; in [2]; on Actin-related protein 2; on Obg-like ATPase 1) was > 30 µM (inactive) in each case.
Take `CN(C)C/C=C/C(=O)Nc1cc2c(Nc3ccc(F)c(Cl)c3)ncnc2cc1O[C@H]1CCOC1` [AFATINIB]: the Kd (in assay [1]; in [6]; in assay [2]; at Actin-related protein 2; on Obg-like ATPase 1) was > 30 µM (inactive) throughout.
As to `FC(F)(F)c1ccc(CNc2ccc(Cc3c[nH]c4ncc(Cl)cc34)cn2)cn1` [PEXIDARTINIB], the Kd (in assay [1]; in [6]; in [2]; on Activated CDC42 kinase 1; on Ephrin type-A receptor 2; in assay [3]) was > 30 µM (inactive) each time. Also, the Kd (in [4]; in assay [5]; at Actin-related protein 2) was > 30 µM (inactive) in each case.
`CC[C@@](C)(Nc1ccnc(-c2c[nH]c3ncccc23)n1)C(=O)NCC(F)(F)F` [DECERNOTINIB]: the Kd (in assay [1]; in [6]; in assay [2]; on Activated CDC42 kinase 1; on Ephrin type-A receptor 2; in assay [3]) was > 30 µM (inactive) in each case. Also, the Kd in [4] and in [5] was > 30 µM (inactive) each time.
Turning to `CC1(C)CNc2cc(NC(=O)c3cccnc3NCc3ccncc3)ccc21` [MOTESANIB], the Kd (in assay [1]; in [6]; in assay [2]; on Actin-related protein 2; at Obg-like ATPase 1) was > 30 µM (inactive) each time.
For the compound `COc1cccc(Nc2ncnn3ccc(CN4CC[C@@H](N)[C@H](O)C4)c23)c1` [BMS-690514], the Kd is > 30 µM (inactive) in [1]; > 30 µM (inactive) in assay [2]; 0.208 µM (active) at Activated CDC42 kinase 1; > 30 µM (inactive) at Ephrin type-A receptor 2; > 30 µM (inactive) in assay [3]; 1.15 µM (active) in [4]. The Kd in [5] was 3.64 µM (active); at Actin-related protein 2, > 30 µM (inactive).
Take `CCc1nc(C(N)=O)c(Nc2ccc(N3CCC(N4CCN(C)CC4)CC3)c(OC)c2)nc1NC1CCOCC1` [GILTERITINIB]: the Kd in assay [6] is > 30 µM (inactive); in [2] it was > 30 µM (inactive); on Activated CDC42 kinase 1, 3.15 µM (active); on Ephrin type-A receptor 2 it was > 30 µM (inactive); in assay [4], > 30 µM (inactive); in assay [5], > 30 µM (inactive). The Kd at Actin-related protein 2 was > 30 µM (inactive).
On to `O[C@H]1CC[C@H](Nc2ncc3nc(Nc4c(F)cc(F)cc4F)n([C@H]4CCOC4)c3n2)CC1` [TANZISERTIB], for which the Kd (in assay [1]; in assay [2]; at Activated CDC42 kinase 1; on Ephrin type-A receptor 2; in assay [3]; in [4]) was > 30 µM (inactive) throughout. The Kd (in assay [5]; on Actin-related protein 2) was > 30 µM (inactive) throughout.
`C[C@]1(O)C[C@@H](c2nc(-c3ccc4ccc(-c5ccccc5)nc4c3)c3c(N)nccn32)C1` [LINSITINIB]: the Kd (in assay [1]; in [6]; in assay [2]; on Activated CDC42 kinase 1; in assay [3]; in assay [5]) was > 30 µM (inactive) in each case. Moreover, at Actin-related protein 2, the Kd was > 30 µM (inactive).
